Assay: Acyl group migration (rearrangement) of pro-drug in DMSO-d6/buffer solution monitored by 19F-NMR
Format: physicochemical
Protocol: A compound of formula (I) OR (X) (5 mg) is dissolved in DMSO-d6 (500 μL) and either pH 4 buffer solution (500 μL, potassium hydrogen phthalate buffer) or pH 7 buffer solution (500 μL, sodium and potassium phosphate buffer) is added. The sample is then heated to 40° C. The O-acyl or N-acyl to N-terminal N-acyl migration is monitored by observing the change in chemical shift for the aromatic fluorines using ^19F-NMR. (Fluorine shifts associated with the desired migration were confirmed by spiking with authentic analogue). The sample is analyzed by ^19F-NMR at approxiamately 0, 1.5, 3, 24, 48, and 144 hours. The amount of O-acyl pro-drug, N-acyl pro-drug, and desired migration product at each time point are assigned by integrating the corresponding NMR signal.
N˜1˜-[(2R,3S)-3-amino-4-(3,5-difluorophenyl)-2-hydroxybutyl]-5-(1,3-oxazol-2-yl)-N˜3˜,N˜3˜-dipropyl-N˜1˜-[3-(trifluoromethyl)benzyl]isophthalamide hydrochloride (PREPARATION 7, 5 mg) is dissolved in DMSO-d6 (500 μL) and pH 4 buffer solution (500 μL, potassium hydrogen phthalate buffer) is added. The sample is then heated to 40° C. The N-acyl to N-terminal N-acyl migration is monitored by observing the change in chemical shift for the aromatic fluorines using ^19F-NMR. (Fluorine shifts for the desired migration product in the presence of buffer was confirmed by spiking with authentic migration product, N^1-((1S,2R)-1-(3,5-difluorobenzyl)-2-hydroxy-3-{[3-(trifluoromethyl)benzyl]amino}propyl)-5-(1,3-oxazol-2-yl)-N^3,N^3-dipropylisophthalamide.) NMR data is collected at 0, 1, 3, 25, 48, 96, and 144 hours. The amount of N-acyl pro-drug and desired migration product present at each time point is assigned by integrating the corresponding NMR signal.
The following examples illustrate the solution acyl group migration of compounds of the formulae (I) and (X) as observed by ^19F NMR spectroscopy. Data were collected as described in Example 1, above.

Row | HEA product (% present) (pH 4, 40° C., time 0 hr) | N-acyl prodrug (% present) (pH 4, 40° C., time 0 hr) | O-acyl pro-drug (% present) (pH 4, 40° C., time 0 hr) | HEA product (% present) (pH 4, 40° C., time 1 hr) | N-acyl prodrug (% present) (pH 4, 40° C., time 1 hr) | O-acyl pro-drug (% present) (pH 4, 40° C., time 1 hr) | HEA product (% present) (pH 4, 40° C., time 3 hr) | N-acyl prodrug (% present) (pH 4, 40° C., time 3 hr) | O-acyl pro-drug (% present) (pH 4, 40° C., time 3 hr) | HEA product (% present) (pH 4, 40° C., time 24 hr) | N-acyl prodrug (% present) (pH 4, 40° C., time 24 hr) | O-acyl pro-drug (% present) (pH 4, 40° C., time 24 hr) | HEA product (% present) (pH 4, 40° C., time 48 hr) | N-acyl prodrug (% present) (pH 4, 40° C., time 48 hr) | O-acyl pro-drug (% present) (pH 4, 40° C., time 48 hr) | HEA product (% present) (pH 7, 40° C., time 0 hr) | N-acyl prodrug (% present) (pH 7, 40° C., time 0 hr) | O-acyl pro-drug (% present) (pH 7, 40° C., time 0 hr) | HEA product (% present) (pH 7, 40° C., time 1 hr) | N-acyl prodrug (% present) (pH 7, 40° C., time 1 hr) | Compound | further results
1 | 0% | 100% | 0% | 3% | 97% | 0% | 4% | 96% | 0% | 7% | 93% | 0% | 8% | 92% | 0% | 0% | 100% | 0% | 7% | 93% | CCCN(CCC)C(=O)c1cc(C(=O)N(Cc2cccc(C(F)(F)F)c2)C[C@@H](O)[C@@H](N)Cc2cc(F)cc(F)c2)cc(-c2ncco2)c1.Cl [Preparation 20, N^1-[(2R,3S)-3-amino-4-(3,5-difluorophenyl)-2-hydroxybutyl]-5-(1,3-oxazol-2-yl)-N^3,N^3-dipropyl-N^1-[3-(trifluoromethyl)benzyl]-isophthalamide hydrochloride] | HEA product (% present) (pH 4, 40° C., time 96 hr): 12%; N-acyl prodrug (% present) (pH 4, 40° C., time 96 hr): 88%; O-acyl pro-drug (% present) (pH 4, 40° C., time 96 hr): 0%; O-acyl pro-drug (% present) (pH 7, 40° C., time 1 hr): 0%; HEA product (% present) (pH 7, 40° C., time 3 hr): 12%; N-acyl prodrug (% present) (pH 7, 40° C., time 3 hr): 88%; O-acyl pro-drug (% present) (pH 7, 40° C., time 3 hr): 0%; HEA product (% present) (pH 7, 40° C., time 24 hr): 51%; N-acyl prodrug (% present) (pH 7, 40° C., time 24 hr): 49%; O-acyl pro-drug (% present) (pH 7, 40° C., time 24 hr): 0%; HEA product (% present) (pH 7, 40° C., time 48 hr): 73%; N-acyl prodrug (% present) (pH 7, 40° C., time 48 hr): 27%; O-acyl pro-drug (% present) (pH 7, 40° C., time 48 hr): 0%; HEA product (% present) (pH 7, 40° C., time 96 hr): 88%; N-acyl prodrug (% present) (pH 7, 40° C., time 96 hr): 12%; O-acyl pro-drug (% present) (pH 7, 40° C., time 96 hr): 0%
2 | 0% | 0% | 100% | 13% | 0% | 87% | 27% | 0% | 66% | 78% | 0% | 9% | 86% | 0% | 0% | 0% | 0% | 100% | 100% | 0% | C#Cc1cccc(C2(NC[C@@H](OC(=O)c3cc(C(=O)N(CCC)CCC)cc(-c4ncco4)c3)[C@@H](N)Cc3cc(F)cc(F)c3)CC2)c1 [Preparation 22, (1R,2S)-2-amino-3-(3,5-difluorophenyl)-1-({[1-(3-ethynylphenyl)cyclopropyl]amino}methyl)propyl 3-[(dipropylamino)carbonyl]-5-(1,3-oxazol-2-yl)benzoate] | HEA product (% present) (pH 4, 40° C., time 0.5 hr): 7%; N-acyl prodrug (% present) (pH 4, 40° C., time 0.5 hr): 0%; O-acyl pro-drug (% present) (pH 4, 40° C., time 0.5 hr): 93%; HEA product (% present) (pH 4, 40° C., time 6 hr): 42%; N-acyl prodrug (% present) (pH 4, 40° C., time 6 hr): 0%; O-acyl pro-drug (% present) (pH 4, 40° C., time 6 hr): 49%; HEA product (% present) (pH 7, 40° C., time 0.5 hr): 10%; N-acyl prodrug (% present) (pH 7, 40° C., time 0.5 hr): 0%; O-acyl pro-drug (% present) (pH 7, 40° C., time 0.5 hr): 10%; O-acyl pro-drug (% present) (pH 7, 40° C., time 1 hr): 0%

Source: US7294642B2, “1,3-Diamino-2-hydroxypropane pro-drug derivatives” (Elan Pharmaceuticals, Inc., priority 2002, dated 2007)
